This is an account of results in US20250099420A1, “SMALL MOLECULE MODULATORS OF GPR139 COMPLEX” (University of Florida Research Foundation, Incorporated, priority 2022, published 2025).

pEC50: −log10 of the molar value. Like-named read-outs stand apart in the source and are kept apart here.

One data set deals with T1, GPR139 (Homo sapiens, UniProt Q6DWJ6).
T1 sequence (Q6DWJ6 1-353): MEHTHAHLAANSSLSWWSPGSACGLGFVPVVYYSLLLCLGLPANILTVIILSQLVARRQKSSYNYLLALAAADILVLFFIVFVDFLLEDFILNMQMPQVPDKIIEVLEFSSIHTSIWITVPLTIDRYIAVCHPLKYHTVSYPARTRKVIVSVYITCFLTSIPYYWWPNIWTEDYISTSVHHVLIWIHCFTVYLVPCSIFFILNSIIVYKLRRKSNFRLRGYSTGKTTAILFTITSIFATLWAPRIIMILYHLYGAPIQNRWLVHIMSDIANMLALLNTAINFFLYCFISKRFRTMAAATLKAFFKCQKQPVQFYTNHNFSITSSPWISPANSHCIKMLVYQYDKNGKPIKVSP
The experiment in a line: GPR139 Agonist titration / agonist counterscreen assay (calcium detection, HEK-GPR139 cells). It counts as cell-based. Also on record: expressed in transfected cells; host or cells: HEK Aequorin cells, Maxcyte transient transfection. The settings on record: GPR139 Agonist Activity; for Averaged Max % Response (±St. Dev.): activity relative to known control; for pEC50: read-out: EC50. As to the method: GPR activity was assessed using a calcium detection assay. […] Negative control samples were treated with DMSO. […] Intracellular calcium was measured using Calcium 5.
In general terms: A counterscreen serves to expose hits that act by an unwanted route or on another target.

Another data set relates to parental HEK cells. The experiment in a line: HEK parental Agonist Counterscreen Assay (non-transfected cells). The settings on record: for Averaged Max % Response (±St. Dev.): activity relative to known control. Type of data set: cell-based. From the text:
The high control for the agonist counterscreen was Forskolin not acetylcholine.

The mark [1] stands for this setting: Homo sapiens, HEK293, HEK Agonist Activity section of Table 4 (parental HEK counterscreen).
Where [2] appears, read: values printed in E-notation without unit.

Regarding `C=C(CC1C(=O)CC(c2ccccc2)(c2ccccc2)C1=O)C(C)CC1=CC=CC1` (centres unmarked) [SR-01000062305], at GPR139, the “Efficiency Ligand” value turned out to be 0.27, the “Lipophilic Efficiency (logD)” value was found to be 2.66, the “Lipophilic Efficiency (logP)” value turned out to be 2.66 and the “Averaged Max % Response (±St. Dev.)” value was determined as 121.63 ± 9.56%. Also, in the data set with parental HEK cells (HEK Agonist Activity section), the “Lipophilic Efficiency (logD)” value was 1.70, the “Lipophilic Efficiency (logP)” value worked out at 1.70 and the “Averaged Max % Response (±St. Dev.)” value is −4.71 ± 5.40%. The negative-log EC50 (pEC50) in the data set with parental HEK cells (setting [1]) is below 4.83.

For the molecule `O=C(CN1C(=O)OC(O)(c2ccc(Cl)cc2Cl)C1=O)Nc1ccccc1Cl` (centres unmarked) [SR-01000062419], at GPR139, the “Efficiency Ligand” value is recorded as 0.33, the “Hill Slope” value is recorded as 0.63, the “Lipophilic Efficiency (logD)” value is recorded as 2.50 and the “Lipophilic Efficiency (logP)” value stood at 2.49. In addition, the “Averaged Max % Response (±St. Dev.)” value at GPR139 was found to be 105.27 ± 9.38%. Also, at GPR139 (HEK-GPR139 cells), the negative logarithm of the EC50 (pEC50) is 6.36. In the data set with parental HEK cells (HEK Agonist Activity section), the “Lipophilic Efficiency (logD)” value worked out at 0.98, the “Lipophilic Efficiency (logP)” value was found to be 0.97 and the “Averaged Max % Response (±St. Dev.)” value came out at 19.92 ± 2.49%. Moreover, the pEC50 in the data set on parental HEK cells (setting [1]) is below 4.84.

With `O=C(CN1C(=O)NC2(CCc3ccccc3C2)C1=O)N1CCc2ccccc2C1` (centres unmarked) [SR-01000062726], the “Averaged Max % Response (±St. Dev.)” value at GPR139 is listed as 103.63 ± 9.70%; in the data set with parental HEK cells (HEK Agonist Activity section) it was −12.60 ± 9.55%. In addition, the “Lipophilic Efficiency (logD)” value on GPR139 (based on logD) was found to be 4.25; with parental HEK cells (HEK Agonist Activity section) it was 2.40. In addition, the “Lipophilic Efficiency (logP)” value at GPR139 (based on logP) is 4.25; in the data set on parental HEK cells (HEK Agonist Activity section), 2.40. The “Hill Slope” value on GPR139 (fitted dose-response curve) came to 0.89. In addition, the “Efficiency Ligand” value on GPR139 (ligand efficiency) was 0.32. Moreover, the negative logarithm of the EC50 (pEC50) at GPR139 (setting [2]) is 6.69; in the data set with parental HEK cells (setting [1]) it was below 4.84.

For the molecule `O=C(CNC(=O)c1ccc(Br)o1)NC1CCCc2ccccc21` (centres unmarked) [SR-01000064101], at GPR139, the “Efficiency Ligand” value is 0.38, the “Hill Slope” value is recorded as 1.15, the “Lipophilic Efficiency (logD)” value was 4.09 and the “Lipophilic Efficiency (logP)” value worked out at 4.09. For the same molecule, the “Averaged Max % Response (±St. Dev.)” value at GPR139 was determined as 90.33 ± 2.09%. The negative-log EC50 (pEC50) on GPR139 (HEK-GPR139 cells) is 6.28. In the data set on parental HEK cells (HEK Agonist Activity section), the “Lipophilic Efficiency (logD)” value stood at 2.64, the “Lipophilic Efficiency (logP)” value is 2.64 and the “Averaged Max % Response (±St. Dev.)” value was determined as 10.45 ± 2.67%. Also, the negative-log EC50 (pEC50) in the data set with parental HEK cells (setting [1]) was below 4.83.

For the molecule `CC1(c2ccc3c(c2)OCO3)NC(=O)N(CC(=O)NC2CCCC2)C1=O` (centres unmarked) [SR-01000065547], on GPR139, the “Efficiency Ligand” value is 0.34, the “Hill Slope” value turned out to be 0.59, the “Lipophilic Efficiency (logD)” value is 5.32 and the “Lipophilic Efficiency (logP)” value turned out to be 5.32. At GPR139, the “Averaged Max % Response (±St. Dev.)” value came to 87.19 ± 17.95%. The negative-log EC50 (pEC50) at GPR139 (HEK-GPR139 cells) is 6.33. For the same molecule, in the data set on parental HEK cells (HEK Agonist Activity section), the “Lipophilic Efficiency (logD)” value turned out to be 3.84, the “Lipophilic Efficiency (logP)” value turned out to be 3.84 and the “Averaged Max % Response (±St. Dev.)” value turned out to be 2.31 ± 13.81%. In the data set on parental HEK cells (setting [1]), the pEC50 was below 4.85.

Regarding `O=C(CCCOc1ccc(Cl)cc1Cl)NNC(=O)Cc1ccc2c(c1)OCCO2` [SR-01000065653], the “Averaged Max % Response (±St. Dev.)” value on GPR139 is given as 89.15 ± 7.00%; in the data set with parental HEK cells (HEK Agonist Activity section) it was −8.07 ± 6.14%. Besides, the results for the “Lipophilic Efficiency (logD)” value on GPR139 (based on logD) and in the data set with parental HEK cells (HEK Agonist Activity section) were 4.06 and 1.88, respectively. For the same molecule, the results for the “Lipophilic Efficiency (logP)” value at GPR139 (based on logP) and in the data set on parental HEK cells (HEK Agonist Activity section) were 4.05 and 1.87, respectively. Besides, the “Hill Slope” value on GPR139 (fitted dose-response curve) is on record as 1.10. The “Efficiency Ligand” value on GPR139 (ligand efficiency) worked out at 0.34. In addition, the values for the pEC50 on GPR139 (setting [2]) and with parental HEK cells (HEK Agonist Activity section of Table 4 (parental HEK counterscreen)) were 7.03 and below 4.85, respectively.

As for `CC1(c2ccc3ccccc3c2)NC(=O)N(CC(=O)Nc2ccccc2Cl)C1=O` (centres unmarked) [SR-01000066950], the figures for the “Averaged Max % Response (±St. Dev.)” value on GPR139 and in the data set with parental HEK cells (HEK Agonist Activity) were 117.24 ± 4.32% and 2.95 ± 8.11%, respectively. Also, the “Lipophilic Efficiency (logD)” value was determined as 3.74 at GPR139 (based on logD) and 1.21 in the data set on parental HEK cells (HEK Agonist Activity). Besides, the “Lipophilic Efficiency (logP)” value at GPR139 (based on logP) was determined as 3.74; in the data set on parental HEK cells (HEK Agonist Activity), 1.21. Also, the “Hill Slope” value on GPR139 (fitted dose-response curve) is recorded as 0.61. In addition, at GPR139 (ligand efficiency), the “Efficiency Ligand” value was 0.36. Besides, the pEC50 at GPR139 (setting [2]) is 7.39; with parental HEK cells (Homo sapiens, HEK293, HEK Agonist Activity, parental non-transfected HEK cells), below 4.86.

For orientation: pEC50 means the EC50 on a negative log10 scale, so that one unit is a factor of ten.
